# Measured values reported in patent publication US9365549B2, “Hepatitis C virus inhibitors” (THERAVANCE BIOPHARMA R&D IP, LLC, priority 2012, dated 2016).
# How the values were obtained:
# [1] = tested on: HCV genotype 1a replicon cell line; test: HCV Genotype 1a Replicon Assay; assay type: cell-based; conditions: Hepatitis C virus, Huh7.5 cell background, NS3-specific protease activity in lysates, 48 or 72 hours, read-out: pEC50 Genotype 1a (converted)
# Procedure: Assay 2: HCV Genotype 1a Replicon Assay
# The HCV genotype 1a replicon cell line was obtained from Apath LLC (APC89; Huh7.5 cell background). This subgenomic replicon contains the N-terminus of the HCV core protein fused to the neomycin-resistance selectable marker. The EMCV IRES lies downstream and drives expression of the non-structural proteins NS3-NS5B. Compound potencies were determined using the NS3-specific protease activity in lysates as a measurement of compound inhibition of replicon levels.
# (§1) Cells were grown at 37° C. in a 5% CO2 humidified incubator in DMEM (Invitrogen) with 10% FBS (HyClone), 1×NEAA (Invitrogen), 1× Pen-Strep (Invitrogen), and 850 μg/mL G418 (Invitrogen). On day 1 of the assay, cells were plated at 15,000 cells/well in black 96-well tissue culture plates (Costar) in 200 μL media lacking G418. […] Compounds were initially diluted in DMSO and then diluted another 200× in media to bring the final DMSO concentration down to 0.5%. The cells were incubated with test compounds for 48 or 72 hours. At the end of the incubation period, media and compound were removed from the plates.
# To determine the NS3-specific protease activity in lysates, the cells were lysed at room temperature in 50 μL/well of 50 mM Hepes pH 7.5, 150 mM NaCl, 15% Glycerol, 0.15% Triton X-100, 10 mM DTT for 20 minutes with shaking. 50 μL of an NS3/4a protease-specific FRET substrate (Anaspec RET S1 Cat#22991) was then added to the wells at a final concentration of 15 μM. The plates were incubated at 37° C. for 20 minutes, which corresponds to a timepoint at which the protease activity is still in the linear phase. Protease activity was determined by measuring fluorescence (Excitation: 340 nm; Emission: 509 nm).
# To analyze the data, the fluorescence was plotted vs. the compound concentration, and EC50 values were determined from a 4-parameter robust fit model using GraphPad Prism software.
# [2] = tested on: HCV genotype 1b replicon cell line; test: HCV Genotype 1b Replicon Assay; assay type: cell-based; conditions: Hepatitis C virus, Huh-7, Huh7 cell background, luciferase activity readout, 48 hours
# Text: Assay 1: HCV Genotype 1b Replicon Assay
# The HCV genotype 1b replicon cell line was obtained from Apath LLC (Brooklyn, N.Y.) (APC144; Huh7 cell background). This subgenomic replicon contains the N-terminus of the HCV core protein fused to the neomycin-resistance selectable marker. The EMCV IRES lies downstream and drives expression of humanized Renilla luciferase fused to the non-structural proteins NS3-NS5B. This cell line was used to determine compound potency using the luciferase activity readout as a measurement of compound inhibition of replicon levels.
# as §1, with “500” for “850”, “10,000” for “15,000”, “white” for “black”, “48” for “48 or 72”, “plates and the luciferase activity was determined using Promega Renilla-Glo reagents.” for “plates.”
# To analyze the data, the luciferase activity was plotted vs. the compound concentration, and EC50 values were determined from a 4-parameter robust fit model with the GraphPad Prism software package (GraphPad Software, Inc., San Diego, Calif.). Results are expressed as the negative decadic logarithm of the EC50 value, pEC50.
SMILES,EC50 [1] [pM],EC50 [2] [pM]
"COC(=O)N[C@H](C(=O)N1CC(C2CC2)=C[C@H]1c1nc(-c2ccc(-c3cc(Cl)c(NC(=O)c4ccc(N5CCN(C(=O)[C@H]6CC6(C)C)C[C@H]5C)nc4)cc3OC(F)(F)F)cc2)c[nH]1)C(C)C [Example 4, ((S)-1-{(S)-2-[4-(5′-Chloro-4′-{[6-((R)-4-(S)-2,2-dimethylcyclopropanecarbonyl-2-methyl-piperazin-1-yl)-pyridine-3-carbonyl]-amino}-2′-trifluoromethoxy-biphenyl-4-yl)-1H-imidazol-2-yl]-4-cyclopropyl-2,5-dihydro-pyrrole-1-carbonyl}-2-methyl-propyl)-carbamic acid methyl ester]",< 100,< 100
"COC(=O)N[C@H](C(=O)N1C[Si](C)(C)C[C@H]1c1nc(-c2ccc(-c3cc(Cl)c(NC(=O)c4ccc(N5CCN(C(=O)[C@H]6CC6(C)C)C[C@H]5C)nc4)cc3OC(F)(F)F)cc2)c[nH]1)C(C)C [Example 5, ((S)-1-{(R)-5-[4-(5′-Chloro-4′-{[6-((R)-4-(S)-2,2-dimethylcyclopropanecarbonyl-2-methyl-piperazin-1-yl)-pyridine-3-carbonyl]-amino}-2′-trifluoromethoxy-biphenyl-4-yl)-1H-imidazol-2-yl]-3,3-dimethyl-[1,3]azasilolidine-1-carbonyl}-2-methyl-propyl)-carbamic acid methyl ester]",< 100,< 100
COC(=O)N[C@H](C(=O)N1C[C@@H](C)C[C@H]1c1nc2c(ccc3cc(-c4cc(F)c(NC(=O)c5ccc(N6CCN(C(=O)C(C)(C)C)C[C@H]6C)nc5)cc4OC(F)(F)F)ccc32)[nH]1)C1CCOCC1 [Example 5-2],< 100,< 100
COC(=O)N[C@H](C(=O)N1C[C@@H](C)C[C@H]1c1nc2c(ccc3cc(-c4cc(F)c(NC(=O)c5ccc(N6CCN(C(=O)C(C)(C)CO)C[C@H]6C)nc5)cc4OC(F)(F)F)ccc32)[nH]1)C1CCOCC1 [Example 5-3],< 100,< 100
COC(=O)N[C@H](C(=O)N1C[C@@H](C)C[C@H]1c1nc2c(ccc3cc(-c4cc(Cl)c(C(=O)Nc5ccc(N6CCN(C(=O)C(C)(C)C)C[C@H]6C)nc5)cc4OC(F)(F)F)ccc32)[nH]1)C1CCOCC1 [Example 5-6],< 100,< 100
COC(=O)N[C@H](C(=O)N1C[C@@H](C)C[C@H]1c1nc2c(ccc3cc(-c4cc(Cl)c(C(=O)Nc5ccc(N6CCN(C(=O)C(C)(C)CO)C[C@H]6C)nc5)cc4OC(F)(F)F)ccc32)[nH]1)C1CCOCC1 [Example 5-7],< 100,< 100
COC(=O)N[C@H](C(=O)N1[C@@H]2C[C@@H]2CC[C@H]1c1nc(-c2ccc(-c3cc(Cl)c(NC(=O)c4ccc(N5CCN(C(=O)C(C)(C)C)C[C@H]5C)nc4)cc3OC(F)(F)F)cc2)c[nH]1)C(C)C [Example 5-10],< 100,< 100
"COC(=O)N[C@H](C(=O)N1C[Si](C)(C)C[C@H]1c1nc(-c2ccc(-c3ccc(NC(=O)c4ccc(N5CCN(C(=O)C(C)(C)C)C[C@H]5C)nc4)cc3OC(F)(F)F)cc2)c[nH]1)C(C)C [Example 7, [(S)-1-((R)-5-{4-[4′-({6-[(R)-4-(2,2-dimethyl-propionyl)-2-methyl-piperazin-1-yl]-pyridine-3-carbonyl}-amino)-2′-trifluoromethoxy-biphenyl-4-yl]-1H-imidazol-2-yl}-3,3-dimethyl-[1,3]azasilolidine-1-carbonyl)-2-methyl-propyl]-carbamic acid methyl ester]",100 to 1000,< 100
"COC(=O)N[C@H](C(=O)N1C[C@@H](C)C[C@H]1c1nc2c(ccc3cc(-c4cc(Cl)c(NC(=O)c5ccc(N6CCN(C(=O)C(C)(C)C)C[C@H]6C)nc5)cc4OC(F)(F)F)ccc32)[nH]1)C(C)C [Example 8, [(S)-1-((2S,4S)-2-{7-[5-Chloro-4-({6-[(R)-4-(2,2-dimethyl-propionyl)-2-methyl-piperazin-1-yl]-pyridine-3-carbonyl}-amino)-2-trifluoromethoxy-phenyl]-3H-naphtho[1,2-d]imidazol-2-yl}-4-methyl-pyrrolidine-1-carbonyl)-2-methyl-propyl]-carbamic acid methyl ester]",< 100,< 100
"COC(=O)N[C@H](C(=O)N1C[C@@H](C)C[C@H]1c1nc2c(ccc3cc(-c4cc(Cl)c(NC(=O)c5ccc(N6CCN(C(=O)C7CC7)C[C@H]6C)nc5)cc4OC(F)(F)F)ccc32)[nH]1)C(C)C [Example 9, ((S)-1-{(2S,4S)-2-[7-(5-Chloro-4-{[6-((R)-4-cyclopropanecarbonyl-2-methyl-piperazin-1-yl)-pyridine-3-carbonyl]-amino}-2-trifluoromethoxy-phenyl)-3H-naphtho[1,2-d]imidazol-2-yl]-4-methyl-pyrrolidine-1-carbonyl}-2-methyl-propyl)-carbamic acid methyl ester]",< 100,< 100
"COC(=O)N[C@H](C(=O)N1C[C@@H](C)C[C@H]1c1nc2c(ccc3cc(-c4cc(Cl)c(NC(=O)c5ccc(N6CCN(C(=O)[C@H]7CC7(C)C)C[C@H]6C)nc5)cc4OC(F)(F)F)ccc32)[nH]1)C(C)C [Example 10, [(S)-1-((2S,4S)-2-{7-[5-Chloro-4-({6-[(R)-4-((S)-2,2-dimethylcyclopropanecarbonyl)-2-methyl-piperazin-1-yl]-pyridine-3-carbonyl}-amino)-2-trifluoromethoxy-phenyl]-3H-naphtho[1,2-d]imidazol-2-yl}-4-methyl-pyrrolidine-1-carbonyl)-2-methyl-propyl]-carbamic acid methyl ester]",< 100,< 100
"COC(=O)N[C@H](C(=O)N1C[C@@H](C)C[C@H]1c1nc2c(ccc3cc(-c4ccc(C(=O)Nc5ccc(N6CCN(C(=O)C(C)(C)C)C[C@H]6C)nc5)cc4OC(F)(F)F)ccc32)[nH]1)C(C)C [Example 13, ((S)-1-{(2S,4S)-2-[7-(4-{6-[(R)-4-(2,2-Dimethyl-propionyl)-2-methyl-piperazin-1-yl]-pyridin-3-ylcarbamoyl}-2-trifluoromethoxy-phenyl)-3H-naphth[1,2-d]imidazol-2-yl]-4-methyl-pyrrolidine-1-carbonyl}-2-methyl-propyl)-carbamic acid methyl ester]",< 100,< 100
"COC(=O)N[C@H](C(=O)N1C[C@@H](C)C[C@H]1c1nc2c(ccc3cc(-c4cc(Cl)c(NC(=O)c5ccc(N6CCN(C(=O)C(C)(C)C)C[C@H]6C)nc5)cc4OC(F)(F)F)ccc32)[nH]1)C1CCOCC1 [Example 14, [(S)-2-((2S,4S)-2-{7-[4-({6-[(R)-4-(2,2-Dimethyl-propionyl)-2-methyl-piperazin-1-yl]-pyridine-3-carbonyl}-amino)-5-chloro-2-trifluoromethoxy-phenyl]-3H-naphtho[1,2-d]imidazol-2-yl}-4-methyl-pyrrolidin-1-yl)-2-oxo-1-(tetrahydropyran-4-yl)-ethyl]-carbamic acid methyl ester]",< 100,< 100
"COC(=O)N[C@H](C(=O)N1C[C@@H](C)C[C@H]1c1nc2c(ccc3cc(-c4cc(Cl)c(NC(=O)c5ccc(N6CCN(C(=O)C(C)(C)CO)C[C@H]6C)nc5)cc4OC(F)(F)F)ccc32)[nH]1)C1CCOCC1 [Example 15, [(S)-2-((2S,4S)-2-{7-[4-({6-[(R)-4-(3-Hydroxy-2,2-dimethyl-propionyl)-2-methyl-piperazin-1-yl]-pyridine-3-carbonyl}-amino)-5-chloro-2-trifluoromethoxy-phenyl]-3H-naphtho[1,2-d]imidazol-2-yl}-4-methyl-pyrrolidin-1-yl)-2-oxo-1-(tetrahydropyran-4-yl)-ethyl]-carbamic acid methyl ester]",< 100,< 100
